# Data from patent US20250295631A1, “NOVEL TREATMENT” (University of Liverpool, priority 2022, published 2025).
# Several values for one entry are separate records, joined by “and”; a condition that tells them apart may be missing. Equal entries are not always repeated. Entries after “also recorded” stand apart in the source; their conditions may differ. Where two headings read alike, the source gives them in different places.
# Key:
# ex vivo porcine corneas = assay: Ex vivo tensile testing of cross-linked porcine corneas (elastic modulus); parameters: species or system domestic pig (Sus domesticus)
# Description: Eyes of the domestic pig (Sus domesticus) are collected from a local abattoir 0-4 hours post-mortem. Eyes are cleaned of excess tissue and fat and washed in PBS containing 200 U penicillin and 0.2 mg/ml streptomycin and 5 μg/ml amphotericin B (Merch Life Science, Dorset, UK). The eyes are stored in a petri dish containing the PBS antibiotic/antimycotic solution, corneas facing up, at 4° C. overnight.
# The porcine eyes are removed from 4° C. and allowed to warm to room temperature. One-to-two drops of Minims Proxymetacaine hydrochloride 0.5% w/v (Bosch & Lomb, Surrey, UK) were applied to the cornea for 15 minutes, with additional drops added ever 5 minutes and then 2-3 minutes before treatment. After which a suction ring (E.Janach, Como, Italy) was attached to the cornea (FIG. 1) and 200 μl of BS^3 solution was added inside the ring. Eyes were incubated for 5, 15 or 30 mins at 37° C.; after which the BS^3 solution was aspirated and retained for pH measurement, and eyes were rinsed in PBS then stored, cornea facing down, in a 6-well plate with fresh PBS until tensile measurement.
# Suction rings were applied to porcine corneas as in FIG. 1 and 18% ethanol solution was applied for 30 seconds before being adsorbed by a sponge spear. The cornea was then rinsed with PBS. After this the epithelium was removed with a corneal scraper and sponge spear. Once the epithelium was removed 0.1% riboflavin (Vibex Rapid™, Avedro Inc, MA, USA) was applied every 3 mins. Riboflavin was applied for a total of 30 mins for the Dresden protocol and 15 minutes for the Accelerated protocol.
# After riboflavin treatment eyes were cross-linked by UVA light using and KXL System (Avedro Inc). UV light was applied at 3 mW/cm^2 for 30 mins for the Dresden protocol and 6 mW/cm^2 for 15 mins for the Accelerated protocol for a total applied energy of 5.4 J/cm^2 for both protocols.
# The anterior section of the eye was removed by cutting around the globe 5-10 mm posteriorly from the limbus. The iris and ciliary process were removed from the posterior section of the tissue leaving only sclera and cornea. A strip of tissue was cut using a custom-made replaceable razor blade jig. Tissue thickness and width (determined as the distance between cutting edges) were measured with calipers.
# (§1) The tissue strip was mounted in the grips of a Univert tensile tester (CellScale, Ontario, Canada) with a 50 N load cell. Tissue was stretched at a rate of 125 μm/s until failure. Data was captured at 1 Hz. Stress-strain curves were plotted and the elastic modulus was determined at a range of strains: 5-10%, 10-15%, 20-25% and 30-35%. Data were trimmed to 3% from the strain at ultimate tensile strain and 6 term polynomial equations we determined from each curve. […] These polynomials represent the stress-stain response of each cornea and were used to create an average stress-strain curve for the samples.
# Ex vivo mechanical data were compared by One-way ANOVA and Tukey's post-hoc.
# [1] = Description: To investigate cross-linker stability 0.2 M BS^3 was prepared in various buffers. The pH was measured using a SevenGO SG2 pH meter with an InLab Ultra-Micro-ISM electrode (Mettler Toldedo, Leicester, UK). Nine carbonate buffer and two phosphate buffer formulations were investigated. All were prepared in deionised H2O. Formulations can be seen in Table 1 below. The pH of BS^3 at concentrations of 0.2 M and 0.035 M (20 mg/ml as per patent US2014/0271897 A1 claim [0358]) in phosphate buffered saline (PBS) were also measured. The pH was measured immediately after addition BS3 and filtration (00:00) then at 30 mins, 1 hour, 2 hours, 3 hours, 4 hours, 24 hours.
# BS^3 (bis(sulfosuccinimidyl)suberate, Thermo Scientific Pierce, IL, USA) solutions was prepared to concentrations of 0.2 M in the buffer solution, vortexed for 1 min and then filtered through 0.2 μm filter.
# rabbit corneas [2] = conditions: in vivo
# Description: (§2) Male Wistar rats (300 g) and mixed sex New Zealand rabbits (1.5-3 kg), both specific-antigen free, were ordered from Charles River UK and ENVIGO, respectively. They were allowed a minimum of 7 days acclimatisation prior to procedures. Animals were anaesthetised and proxymetacaine hydrochloride 0.5% w/v was applied to the corneas. For the rats, a 2 cm section of silicone tubing was placed on the cornea whereas for the rabbits the suction ring (as above) was placed on the cornea, and 200 μl of the sterile filtered 0.2 M BS^3 solution was instilled for 15 mins. Following this, eyes were rinsed with saline. Animals were provided with antibiotic/steroid drops (Tobradex, Novartis Pharmaceuticals UK Ltd, London, UK) daily and were monitored for any signs for distress or ocular discomfort.
# (§3) The animals were euthanised at pre-determined time points (rats at 24 hours and 7 days; rabbits at 3 days post-treatment). Aqueous humour was collected. Rat ocular tissue was collected and fixed in 10% paraformaldehyde for histology. […]
# (§4) Corneal thickness and transparency were determined using optical coherence tomography (OCT) (ENVISU R2210, Leica Microsystems, Milton Keynes, UK) before treatment and prior to euthanasia. Corneal transparency was determined by the intensity of the pixels within the cornea minus background intensity from the corneal sections of the OCT images. […]
# rat corneas = conditions: in vivo
# Description: as §2, §3, §4
# [3] = system: inflammatory cytokines in rat aqueous humour; conditions: in vivo
# Description: as §2
# (§5) The animals were euthanised at pre-determined time points (rats at 24 hours and 7 days; rabbits at 3 days post-treatment). Aqueous humour was collected. Rat ocular tissue was collected and fixed in 10% paraformaldehyde for histology. Rabbit the eyes enucleated and prepared for mechanical testing which was conducted the following day and the remaining cornea was fixed. Ocular tissue was also fixed in 10% paraformaldehyde.
# (§6) Statistical analyses were performed with Prism 9.3.1 (GraphPad Software, San Diego, CA, USA). In vivo data were compared by paired t-tests to contralateral control eyes.
# rabbit corneas [4] = assay: Rabbit corneal tensile measurements after in vivo treatment; parameters: species or system New Zealand rabbits; conditions: for Percentage Change in Modulus After 3 Days Compared to Control / Percentage Change in Modulus Compared to Control: 0.2M BS^3 for 15 mins; for Percentage Change in Modulus After 3 Days Compared to Control: 3 days after treatment; for Percentage Change in Modulus Compared to Control: 28 days after treatment
# Description: as §1, §2
# as §5, with “Aqueous” for “The animals were euthanised at pre-determined time points (rats at 24 hours and 7 days; rabbits at 3 days post-treatment). Aqueous”
# Rabbit eyes were collected immediately after culling and were stored in a petri dish containing the PBS antibiotic/antimycotic solution, corneas facing up, at 4° C. overnight. Mechanical testing was conducted using the protocol above for ex vivo porcine tissue.
# as §6
# [5] = Dresden UV/riboflavin protocol, strain range 5-10%
# [6] = Accelerated UV/Riboflavin protocol, strain range 5-10%
molecule,measurement,setting,value
"Cc1cc2nc3c(=O)[nH]c(=O)nc-3n(C[C@H](O)[C@H](O)[C@H](O)CO)c2cc1C [Dresden, riboflavin, reference compound]",Percentage Change in Modulus Compared to Control,ex vivo porcine corneas; [5],158%
same,elastic modulus,ex vivo porcine corneas; [5],7.99±4.58 MPa
same,Percentage Change in Modulus Compared to Control,"ex vivo porcine corneas; Dresden UV/riboflavin protocol, strain range 10-15%",123% and 124%
same,Percentage Change in Modulus Compared to Control,"ex vivo porcine corneas; Dresden UV/riboflavin protocol, strain range 20-25%",62%
same,Percentage Change in Modulus Compared to Control,"ex vivo porcine corneas; Dresden UV/riboflavin protocol, strain range 30-35%",34%
bis(sulfosuccinimidyl)suberate [BS3],pH by 30 minutes,"[1]; 20 mg/ml (0.035 M) BS^3 in PBS (Dulbecco A), formulation of US2014/0271897 A1 [0358]",5.18
same,precipitation,"[1]; 0.2 M BS^3 in 0.1 M and 0.2 M carbonate buffers, at 24 hours",Precipitation was observed
same,initial pH after the addition of 0.2 M BS^3,[1]; 0.2 M BS^3 in 0.5 M carbonate buffers,> 7
same,pH over the 24 hour testing period,"[1]; 0.2 M BS^3 in 0.5 M carbonate:bicarbonate buffer, ratio 5:5",> 6
same,precipitation,"[1]; 0.2 M BS^3 in 0.5 M carbonate:bicarbonate buffer, ratio 5:5, 24 hour testing period",did not have any precipitation
same,pH over the 24 hour testing period,"[1]; 0.2 M BS^3 in 0.5 M carbonate:bicarbonate buffer, ratio 9:1",> 6
same,precipitation,"[1]; 0.2 M BS^3 in 0.5 M carbonate:bicarbonate buffer, ratio 9:1, 24 hour testing period",did not have any precipitation
same,Percentage Change in Modulus Compared to Control,"ex vivo porcine corneas; 20 mg/ml (0.035 M) BS3 in PBS (US2014/0271897 A1 [0358]), strain range 5-10%",−28%
same,Percentage Change in Modulus Compared to Control,"ex vivo porcine corneas; 20 mg/ml (0.035 M) BS3 in PBS (US2014/0271897 A1 [0358]), strain range 10-15%",−10%
same,Percentage Change in Modulus Compared to Control,"ex vivo porcine corneas; 20 mg/ml (0.035 M) BS3 in PBS (US2014/0271897 A1 [0358]), strain range 20-25%",3%
same,Percentage Change in Modulus Compared to Control,"ex vivo porcine corneas; 20 mg/ml (0.035 M) BS3 in PBS (US2014/0271897 A1 [0358]), strain range 30-35%",15%
same,difference in elastic modulus compared to control,"ex vivo porcine corneas; 20 mg/ml (0.035 M) BS^3 in PBS, any of the strain ranges, p>0.05",no significant difference
same,Percentage Change in Modulus Compared to Control,"ex vivo porcine corneas; 0.2M BS3, 5 min treatment, strain range 5-10%",76%
same,Percentage Change in Modulus Compared to Control,"ex vivo porcine corneas; 0.2M BS3, 5 min treatment, strain range 10-15%",60%
same,Percentage Change in Modulus Compared to Control,"ex vivo porcine corneas; 0.2M BS3, 5 min treatment, strain range 20-25%",42%
same,Percentage Change in Modulus Compared to Control,"ex vivo porcine corneas; 0.2M BS3, 5 min treatment, strain range 30-35%",12%
same,Percentage Change in Modulus Compared to Control,"ex vivo porcine corneas; 0.2M BS3, 15 min treatment, strain range 5-10%",109%
same,Percentage Change in Modulus Compared to Control,"ex vivo porcine corneas; 0.2M BS3, 15 min treatment, strain range 5-10%, listed as BS^3",109%
same,Percentage Change in Modulus Compared to Control,"ex vivo porcine corneas; 0.2M BS3, 15 min treatment, strain range 10-15%",68%
same,Percentage Change in Modulus Compared to Control,"ex vivo porcine corneas; 0.2M BS3, 15 min treatment, strain range 10-15%, listed as BS^3",68%
same,Percentage Change in Modulus Compared to Control,"ex vivo porcine corneas; 0.2M BS3, 15 min treatment, strain range 20-25%",43%
same,Percentage Change in Modulus Compared to Control,"ex vivo porcine corneas; 0.2M BS3, 15 min treatment, strain range 30-35%",18%
same,Percentage Change in Modulus Compared to Control,"ex vivo porcine corneas; 0.2M BS3, 15 min treatment, strain range 30-35%, listed as BS^3",18%
same,Percentage Change in Modulus Compared to Control,"ex vivo porcine corneas; 0.2M BS3, 30 min treatment, strain range 5-10%",56%
same,Percentage Change in Modulus Compared to Control,"ex vivo porcine corneas; 0.2M BS3, 30 min treatment, strain range 10-15%",54%
same,Percentage Change in Modulus Compared to Control,"ex vivo porcine corneas; 0.2M BS3, 30 min treatment, strain range 20-25%",45%
same,Percentage Change in Modulus Compared to Control,"ex vivo porcine corneas; 0.2M BS3, 30 min treatment, strain range 30-35%",22%
same,stiffness (elastic modulus),"ex vivo porcine corneas; 0.2 M BS^3 in 0.5 M carbonate:bicarbonate 9:1, 5 min treatment, strain range 5-10%",5.43±2.23 MPa
same,stiffness (elastic modulus),"ex vivo porcine corneas; 0.2 M BS^3 in 0.5 M carbonate:bicarbonate 9:1, 15 min treatment, strain range 5-10%",6.47±2.23 MPa
same,stiffness (elastic modulus),"ex vivo porcine corneas; 0.2 M BS^3 in 0.5 M carbonate:bicarbonate 9:1, 30 min treatment, strain range 5-10%",4.84±2.02 MPa
same,reduction in corneal thickness in the treated eyes vs contralateral control,rabbit corneas [2],100±20 μm
same,reduction in corneal thickness in the treated eye vs contralateral control,rat corneas,42±29 μm
same,"change in IL-2 in aqueous humour, treated vs control eyes",[3],−0.76 fold
same,"change in IL-4 in aqueous humour, treated vs control eyes",[3],−0.63 fold
same,reductions in IL-2 and IL-4 in aqueous humour,[3],resolved by day 7
same,Percentage Change in Modulus After 3 Days Compared to Control,rabbit corneas [4]; strain range 5-10%,−6%
same,Percentage Change in Modulus After 3 Days Compared to Control,rabbit corneas [4]; strain range 10-15%,15%
same,Percentage Change in Modulus After 3 Days Compared to Control,rabbit corneas [4]; strain range 15-20%,43%
same,Percentage Change in Modulus After 3 Days Compared to Control,rabbit corneas [4]; strain range 20-25%,104%
same,Percentage Change in Modulus Compared to Control,rabbit corneas [4]; strain range 5-10%,22%
same,Percentage Change in Modulus Compared to Control,rabbit corneas [4]; strain range 10-15%,29%
same,Percentage Change in Modulus Compared to Control,rabbit corneas [4]; strain range 15-20%,28%
same,Percentage Change in Modulus Compared to Control,rabbit corneas [4]; strain range 20-25%,38%
same,effect on stiffness of corneal tissue vs untreated control eye,"rabbit corneas [4]; 3 days, lower strain ranges (5-10% & 10-15%)",No significant difference; also recorded: insignificant effect
same,effect on stiffness of corneal tissue vs untreated control eye,"rabbit corneas [4]; 28 days, lowest and highest strain ranges",No significant difference
"Cc1cc2nc3c(=O)[nH]c(=O)nc-3n(C[C@H](O)[C@H](O)[C@H](O)CO)c2cc1C [Accelerated, riboflavin, reference compound]",Percentage Change in Modulus Compared to Control,ex vivo porcine corneas; [6],79%
same,difference in elastic modulus compared to control,ex vivo porcine corneas; [6],not significantly different
same,elastic modulus,ex vivo porcine corneas; [6],5.45±2.97 MPa
same,Percentage Change in Modulus Compared to Control,"ex vivo porcine corneas; Accelerated UV/riboflavin protocol, strain range 10-15%",46%
same,Percentage Change in Modulus Compared to Control,"ex vivo porcine corneas; Accelerated UV/riboflavin protocol, strain range 20-25%",28%
same,Percentage Change in Modulus Compared to Control,"ex vivo porcine corneas; Accelerated UV/riboflavin protocol, strain range 30-35%",16%
